ChEMBL document CHEMBL1138274, “Discovery of potent and selective adamantane-based small-molecule P2X(7) receptor antagonists/interleukin-1beta inhibitors” (J Med Chem, 2007)
Calls of active or inactive are those of the source. No cut-off for these calls is given here.

How the values were obtained:
P2X purinoceptor 7 [1] = molecular target: T1, P2X purinoceptor 7 (Homo sapiens, UniProt Q99572); experiment: Antagonist activity at human P2X7 receptor transfected in THP1 cells assessed as inhibition of benzoyl-ATP-induced changes in plasma membrane pore formation; assay type: functional, cell-based, THP-1; settings: read-out: pA2 (converted)
T1 sequence (Q99572 whole entry): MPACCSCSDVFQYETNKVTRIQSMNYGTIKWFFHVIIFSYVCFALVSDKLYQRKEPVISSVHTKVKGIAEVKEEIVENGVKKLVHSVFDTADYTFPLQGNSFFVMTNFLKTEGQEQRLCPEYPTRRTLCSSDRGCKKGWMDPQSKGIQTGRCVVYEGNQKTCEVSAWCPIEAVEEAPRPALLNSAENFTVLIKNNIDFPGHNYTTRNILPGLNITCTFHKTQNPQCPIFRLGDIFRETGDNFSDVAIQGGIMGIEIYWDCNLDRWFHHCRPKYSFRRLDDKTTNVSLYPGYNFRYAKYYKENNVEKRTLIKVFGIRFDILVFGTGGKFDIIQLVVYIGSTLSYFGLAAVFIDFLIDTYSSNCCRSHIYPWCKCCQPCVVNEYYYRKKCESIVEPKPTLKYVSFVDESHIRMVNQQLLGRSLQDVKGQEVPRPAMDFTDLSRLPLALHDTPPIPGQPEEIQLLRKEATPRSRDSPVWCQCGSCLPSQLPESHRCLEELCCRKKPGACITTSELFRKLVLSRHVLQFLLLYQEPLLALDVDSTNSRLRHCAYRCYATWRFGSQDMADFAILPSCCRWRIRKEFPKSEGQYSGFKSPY

P2X purinoceptor 7 [2] = molecular target: T2, P2X purinoceptor 7 (Rattus norvegicus, UniProt Q64663); experiment: Antagonist activity at rat P2X7 receptor transfected in HEK cells assessed as inhibition of benzoyl-ATP-induced changes in plasma membrane pore formation; assay type: functional, cell-based, HEK293; settings: for Kb: read-out: pA2 (converted)
T2 sequence (Q64663 whole entry): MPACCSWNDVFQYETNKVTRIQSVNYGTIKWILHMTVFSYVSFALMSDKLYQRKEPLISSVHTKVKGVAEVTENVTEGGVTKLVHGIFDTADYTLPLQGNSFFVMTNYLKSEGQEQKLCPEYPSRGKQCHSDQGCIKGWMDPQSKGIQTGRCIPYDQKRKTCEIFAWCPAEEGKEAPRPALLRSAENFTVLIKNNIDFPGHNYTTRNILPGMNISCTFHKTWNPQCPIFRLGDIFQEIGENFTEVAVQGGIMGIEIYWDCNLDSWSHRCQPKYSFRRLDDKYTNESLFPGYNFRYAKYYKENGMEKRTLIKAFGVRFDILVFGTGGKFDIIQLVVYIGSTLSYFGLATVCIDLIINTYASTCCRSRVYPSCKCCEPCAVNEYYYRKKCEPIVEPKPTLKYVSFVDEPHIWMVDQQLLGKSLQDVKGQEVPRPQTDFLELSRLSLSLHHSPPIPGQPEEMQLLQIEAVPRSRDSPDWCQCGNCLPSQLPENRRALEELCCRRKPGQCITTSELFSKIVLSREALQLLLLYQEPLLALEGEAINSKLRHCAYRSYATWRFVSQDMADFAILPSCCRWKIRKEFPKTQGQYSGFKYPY

Vasopressin V1a receptor = Vasopressin V1a receptor (Homo sapiens, UniProt P37288); experiment: Activity at vasopressin V1A receptor
Sequence of Vasopressin V1a receptor (P37288 whole entry): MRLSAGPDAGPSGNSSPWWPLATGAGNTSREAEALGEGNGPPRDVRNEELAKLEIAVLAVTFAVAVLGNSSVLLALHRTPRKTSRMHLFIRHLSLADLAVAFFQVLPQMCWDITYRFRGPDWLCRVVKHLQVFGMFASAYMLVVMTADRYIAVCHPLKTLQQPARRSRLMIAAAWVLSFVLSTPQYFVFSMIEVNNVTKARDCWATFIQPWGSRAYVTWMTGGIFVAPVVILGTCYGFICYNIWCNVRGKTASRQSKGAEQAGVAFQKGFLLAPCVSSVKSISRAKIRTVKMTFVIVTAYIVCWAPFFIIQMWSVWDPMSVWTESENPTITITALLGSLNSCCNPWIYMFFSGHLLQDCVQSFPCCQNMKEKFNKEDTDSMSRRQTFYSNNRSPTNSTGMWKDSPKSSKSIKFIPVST

[3] = Activity at sigma receptor; design: species or system Homo sapiens
[4] = molecular target: T3, P2X purinoceptor 3 (Homo sapiens) (UniProt P56373); experiment: Activity at human P2X3 receptor at 10 uM
T3 sequence (whole entry): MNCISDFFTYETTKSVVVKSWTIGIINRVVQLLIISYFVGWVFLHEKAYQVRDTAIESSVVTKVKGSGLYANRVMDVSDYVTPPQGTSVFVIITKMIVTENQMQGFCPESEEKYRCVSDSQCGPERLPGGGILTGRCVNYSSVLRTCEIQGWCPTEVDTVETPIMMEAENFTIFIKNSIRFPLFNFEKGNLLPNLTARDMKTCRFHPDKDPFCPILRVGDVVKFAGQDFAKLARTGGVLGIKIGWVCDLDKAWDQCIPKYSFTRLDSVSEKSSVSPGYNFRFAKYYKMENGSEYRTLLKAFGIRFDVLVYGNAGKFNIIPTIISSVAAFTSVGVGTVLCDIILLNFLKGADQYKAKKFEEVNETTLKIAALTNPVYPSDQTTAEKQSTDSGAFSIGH

[5] = molecular target: T4, P2X purinoceptor 4 (Homo sapiens) (UniProt Q99571); experiment: Activity at human P2X4 receptor at 10 uM
T4 sequence (whole entry): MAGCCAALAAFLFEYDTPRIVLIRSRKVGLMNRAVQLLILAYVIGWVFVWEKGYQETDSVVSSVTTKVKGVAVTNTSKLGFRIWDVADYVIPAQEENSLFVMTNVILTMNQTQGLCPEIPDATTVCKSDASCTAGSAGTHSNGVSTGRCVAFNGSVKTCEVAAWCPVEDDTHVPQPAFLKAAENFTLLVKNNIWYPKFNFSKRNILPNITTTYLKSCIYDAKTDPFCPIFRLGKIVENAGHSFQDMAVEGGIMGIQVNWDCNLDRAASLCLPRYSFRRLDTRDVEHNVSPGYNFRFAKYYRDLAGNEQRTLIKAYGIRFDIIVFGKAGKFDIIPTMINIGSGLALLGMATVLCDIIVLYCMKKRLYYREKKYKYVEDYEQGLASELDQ

[6] = molecular target: P2X purinoceptor 5 (Homo sapiens) (UniProt Q93086); experiment: Activity at human P2X5 receptor at 10 uM
Sequence of P2X purinoceptor 5 (Homo sapiens) (Q93086 whole entry): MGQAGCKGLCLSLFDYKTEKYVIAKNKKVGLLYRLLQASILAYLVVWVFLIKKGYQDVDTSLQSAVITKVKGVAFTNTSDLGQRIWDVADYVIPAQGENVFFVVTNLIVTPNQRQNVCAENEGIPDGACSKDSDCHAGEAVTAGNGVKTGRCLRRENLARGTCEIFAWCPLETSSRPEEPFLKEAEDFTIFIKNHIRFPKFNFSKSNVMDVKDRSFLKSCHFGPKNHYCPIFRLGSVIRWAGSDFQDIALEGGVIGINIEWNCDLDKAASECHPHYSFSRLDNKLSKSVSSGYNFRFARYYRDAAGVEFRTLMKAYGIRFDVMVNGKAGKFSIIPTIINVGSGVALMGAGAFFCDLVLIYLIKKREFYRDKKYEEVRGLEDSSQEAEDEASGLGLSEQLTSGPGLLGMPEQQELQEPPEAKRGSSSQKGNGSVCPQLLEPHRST

[7] = molecular target: T5, P2X purinoceptor 2 (Rattus norvegicus) (UniProt P49653); experiment: Activity at rat P2X2 receptor at 10 uM
T5 sequence (whole entry): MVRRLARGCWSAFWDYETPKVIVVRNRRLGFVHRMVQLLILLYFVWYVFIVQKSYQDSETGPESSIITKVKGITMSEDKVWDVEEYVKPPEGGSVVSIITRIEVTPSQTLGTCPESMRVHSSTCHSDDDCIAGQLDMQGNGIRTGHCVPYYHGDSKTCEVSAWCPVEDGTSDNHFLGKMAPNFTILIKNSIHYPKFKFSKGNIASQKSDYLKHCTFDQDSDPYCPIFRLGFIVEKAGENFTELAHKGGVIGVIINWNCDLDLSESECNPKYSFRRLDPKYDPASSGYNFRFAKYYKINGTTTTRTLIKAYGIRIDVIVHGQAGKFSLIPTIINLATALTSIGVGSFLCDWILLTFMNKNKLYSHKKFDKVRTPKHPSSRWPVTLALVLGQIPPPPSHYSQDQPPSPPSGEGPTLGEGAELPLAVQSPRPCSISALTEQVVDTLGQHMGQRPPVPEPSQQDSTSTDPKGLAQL

Rattus norvegicus = species: Rattus norvegicus; experiment: Activity at rat P2X2/3 heteromeric receptor at 10 uM
Monocyte [8] = experiment: Inhibition of BzATP-induced IL1-beta release from LPS-primed human monocytes by ELISA; assay type: functional, cell-based
Monocyte [9] = experiment: Inhibition of BzATP-induced IL18 release from LPS-primed human monocytes by ELISA; assay type: functional, cell-based
Hepatocyte [10] = experiment: Intrinsic clearance in human hepatocytes; assay type: ADME, cell-based, Liver
Hepatocyte [11] = experiment: Intrinsic clearance in rat hepatocytes; assay type: ADME, cell-based, Liver
[12] = Clearance in Sprague-Dawley rat; assay type: ADME, organism-based; settings: in vivo
[13] = Volume of distribution at steady state in Sprague-Dawley rat; assay type: ADME, organism-based; settings: in vivo, read-out: Vdss
[14] = Half life in Sprague-Dawley rat; assay type: ADME, organism-based; settings: in vivo
[15] = Bioavailability in Sprague-Dawley rat; assay type: ADME, organism-based; settings: in vivo
[16] = Protein binding in rat plasma; assay type: ADME, cell-free; settings: read-out: PPB (converted)
[17] = molecular target: T6, P2X purinoceptor 1 (Homo sapiens) (UniProt P51575); experiment: Activity at human P2X1 receptor at 10 uM
T6 sequence (whole entry): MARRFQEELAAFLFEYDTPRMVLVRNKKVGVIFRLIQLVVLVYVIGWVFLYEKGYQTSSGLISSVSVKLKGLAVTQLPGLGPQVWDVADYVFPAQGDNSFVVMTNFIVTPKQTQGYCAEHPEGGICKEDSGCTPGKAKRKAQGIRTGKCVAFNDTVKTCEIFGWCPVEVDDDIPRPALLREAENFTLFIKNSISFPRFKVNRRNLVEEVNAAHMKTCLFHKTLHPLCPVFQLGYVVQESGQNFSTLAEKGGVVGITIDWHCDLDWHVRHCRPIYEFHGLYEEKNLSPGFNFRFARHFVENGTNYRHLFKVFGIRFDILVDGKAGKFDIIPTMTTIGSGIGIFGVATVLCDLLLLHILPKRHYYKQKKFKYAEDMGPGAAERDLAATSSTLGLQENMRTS

SMILES	Kb (P2X purinoceptor 7 [1]) [nM]	IC50 (P2X purinoceptor 7 [2]; read-out: Log IC50 (converted)) [nM]	further results
O=C(NCC12CC3CC(CC(C3)C1)C2)c1cc(N2CCNCC2)ccc1Cl	31.6	1260	
O=C(NCC12CC3CC(CC(C3)C1)C2)c1cc(NC2CCNCC2)ccc1Cl	25.1	501	
O=C(NCC12CC3CC(CC(C3)C1)C2)c1cc(NC2CCCNC2)ccc1Cl (racemic)	5.01		IC50 (P2X purinoceptor 7 [2]; read-out: IC50): 30 nM
Cc1nnc(OC2CCNCC2)cc1C(=O)NCC12CC3CC(CC(C3)C1)C2	1580	794	
O=C(NCC12CC3CC(CC(C3)C1)C2)c1cc(O[C@H]2CCCNC2)ccc1Cl	10	100	
O=C(NCC12CC3CC(CC(C3)C1)C2)c1cc(CC2CCNCC2)ccc1Cl	15.8	63.1	
O=C(NCC12CC3CC(CC(C3)C1)C2)c1cc(CN2CC3CNCC(C2)O3)ccc1Cl			Kb (P2X purinoceptor 7 [2]): 25.1 nM
O=C(NCC12CC3CC(CC(C3)C1)C2)c1cc(C(=O)N2CC3CNCC(C2)O3)ccc1Cl			IC50 (Vasopressin V1a receptor): 7000 nM; IC50 [3]: 4000 nM; Activity [4]: inactive; Activity [5]: inactive; Activity [6]: inactive; Activity [7]: inactive; Activity (Rattus norvegicus): inactive
O=C(NCC12CC3CC(CC(C3)C1)C2)c1ccc(CN2CCCCC2)cc1Cl	126	794	
O=C(NCC12CC3CC(CC(C3)C1)C2)c1nc(OC2CCCNC2)ncc1Cl (centres undefined)	251	316	
O=C(NCC12CC3CC(CC(C3)C1)C2)c1cc(CN2CCNCC2)ccc1Cl	10	398	IC50 (Monocyte [8]): 79.4 nM; IC50 (Monocyte [9]): 39.8 nM; CL (Hepatocyte [10]): < 3 µL/min; CL (Hepatocyte [11]): < 5 µL/min; clearance [12]: 13 mL/min/kg; Vd [13]: 5.31 L/kg; half-life [14]: 5.2 h; bioavailability [15]: 79%
Cc1ccc(C(=O)N2CC3CNCC(C2)O3)cc1C(=O)NCC12CC3CC(CC(C3)C1)C2			Kb (P2X purinoceptor 7 [2]): 15.8 nM; fraction unbound [16]: 0.34; IC50 (Vasopressin V1a receptor): 7000 nM; IC50 [3]: 4000 nM; Activity [17]: inactive; Activity [4]: inactive; Activity [5]: inactive; Activity [6]: inactive; Activity [7]: inactive; Activity (Rattus norvegicus): inactive
O=C(NCC12CC3CC(CC(C3)C1)C2)c1cc(CC2CCCNC2)ccc1Cl (racemic)	6.31		IC50 (P2X purinoceptor 7 [2]; read-out: IC50): 30 nM
Cc1oc(CN2CCNCC2)cc1C(=O)NCC12CC3CC(CC(C3)C1)C2	> 10000	> 10000	Activity (Monocyte [8]): inactive; Activity (Monocyte [9]): Active
O=C(NCC12CC3CC(CC(C3)C1)C2)c1cccc(CN2CCCCC2)c1Cl	200	> 10000	
O=C(NCC12CC3CC(CC(C3)C1)C2)c1cc(CN2C[C@@H]3C[C@H]2CN3)ccc1Cl	5.01	251	
O=C(NCC12CC3CC(CC(C3)C1)C2)c1c(Cl)cccc1OC1CCNCC1	> 10000	> 10000	
O=C(NCC12CC3CC(CC(C3)C1)C2)c1cc(O[C@@H]2CCCNC2)ccc1Cl	6.31	316	
O=C(NCC12CC3CC(CC(C3)C1)C2)c1cc(OC2CCNCC2)ccc1Cl	15.8	631	
Cc1sc(CN2CCNCC2)cc1C(=O)NCC12CC3CC(CC(C3)C1)C2	316	> 10000	
O=C(NCC12CC3CC(CC(C3)C1)C2)c1cc(C2CCNCC2)ccc1Cl	15.8	316	
